Laboratory results published in patent publication US9133158B2, “Bicyclic dihydroisoquinoline-1-one derivatives” (Hoffmann-La Roche Inc., priority 2011, dated 2015).

How the values were obtained:
[1] = target: T1, human CYP11B1 (Homo sapiens, UniProt P15538); experiment: G-402 cellular enzyme assay, human CYP11B1 (cortisol release, HTRF); format: cell-based; conditions: G-402 cells, 1 μM Deoxycortisol
T1 construct: expressed in transfected cells
T1 sequence (P15538 25-503): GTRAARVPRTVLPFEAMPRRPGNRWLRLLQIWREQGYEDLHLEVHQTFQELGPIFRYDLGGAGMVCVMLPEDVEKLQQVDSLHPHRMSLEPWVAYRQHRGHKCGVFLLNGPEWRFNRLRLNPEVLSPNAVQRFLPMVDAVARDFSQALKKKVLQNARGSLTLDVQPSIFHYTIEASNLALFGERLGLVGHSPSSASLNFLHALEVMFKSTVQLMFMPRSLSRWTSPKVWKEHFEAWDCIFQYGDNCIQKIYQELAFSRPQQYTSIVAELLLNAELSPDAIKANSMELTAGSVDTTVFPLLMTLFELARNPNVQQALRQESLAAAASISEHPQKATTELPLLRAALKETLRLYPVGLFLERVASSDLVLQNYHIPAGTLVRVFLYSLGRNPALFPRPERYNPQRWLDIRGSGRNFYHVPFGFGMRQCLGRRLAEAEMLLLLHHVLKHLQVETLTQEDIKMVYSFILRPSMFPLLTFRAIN
Summary of the method: (§1)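 Steroid output from supernatants, quantified by HTRF as cortisol for CYP11B1 or aldosterone for CYP11B2, gave EC50 values by least-squares 4-parameter MMF fitting against inhibitor concentration. Stably transfected G-402 cells carrying the human enzyme received 1 μM deoxycortisol or 1 μM deoxycorticosterone respectively, 16 h, DMEM/F12 with 2.5% charcoal-stripped FCS.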

[2] = target: T2, human CYP11B2 (Homo sapiens, UniProt P19099); experiment: G-402 cellular enzyme assay, human CYP11B2 (aldosterone release, HTRF); format: cell-based; conditions: G-402 cells, 1 μM Deoxycorticosterone
T2 construct: expressed in transfected cells
T2 sequence (P19099 25-503): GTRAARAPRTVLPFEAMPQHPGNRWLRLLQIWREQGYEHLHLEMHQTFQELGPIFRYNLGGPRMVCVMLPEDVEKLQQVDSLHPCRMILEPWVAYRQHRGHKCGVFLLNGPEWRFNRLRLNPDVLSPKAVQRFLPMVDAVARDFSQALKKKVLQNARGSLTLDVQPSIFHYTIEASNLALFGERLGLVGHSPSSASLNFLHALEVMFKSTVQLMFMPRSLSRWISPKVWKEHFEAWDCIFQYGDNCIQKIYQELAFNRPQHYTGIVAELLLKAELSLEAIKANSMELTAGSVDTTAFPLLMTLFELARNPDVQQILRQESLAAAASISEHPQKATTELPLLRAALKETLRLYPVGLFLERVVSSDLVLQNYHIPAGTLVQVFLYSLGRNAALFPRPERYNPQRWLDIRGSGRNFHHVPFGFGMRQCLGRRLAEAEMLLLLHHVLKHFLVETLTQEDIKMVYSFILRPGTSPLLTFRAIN
Summary of the method: as §1

Compound	EC50 [1]	EC50 [2]
CS(=O)(=O)NC1CCc2c1cncc2N1CCc2cc(Cl)ccc2C1=O (single isomer, unassigned) [Example 331, N-[(R or S)-4-(6-Chloro-1-oxo-3,4-dihydro-1H-isoquinolin-2-yl)-6,7-dihydro-5H-[2]pyrindin-7-yl]-methanesulfonamide]	35100 nM	4350 nM
CCC1c2cc(Cl)ccc2C(=O)N1c1cncc2c1CCCC2NS(C)(=O)=O (mixture of isomers) [Example 346, N-[4-(5-Chloro-3-ethyl-1-oxo-1,3-dihydro-isoindol-2-yl)-5,6,7,8-tetrahydro-isoquinolin-8-yl]-methanesulfonamide]	2570 nM	26.3 nM
CC(=O)N1CCN(c2cncc(N3C(=O)c4ccc(Cl)cc4C3(C)C)c2)CC1 [Example 455, 2-[5-(4-Acetyl-piperazin-1-yl)-pyridin-3-yl]-5-chloro-3,3-dimethyl-2,3-dihydro-isoindol-1-one]	717 nM	8.6 nM
COC(C)c1cncc(N2CCc3cc(Cl)ccc3C2=O)c1 (stereo not shown) [Example 16, 6-Chloro-2-[5-(1-methoxy-ethyl)-pyridin-3-yl]-3,4-dihydro-2H-isoquinolin-1-one]	126 nM	19.3 nM
CC[C@@H]1c2cc(Cl)ccc2C(=O)N1c1cncc2c1CC[C@@H]2NC(C)=O (single isomer, unassigned) [Example 342, (+)-N—[(S or R)-4-((R or S)-5-Chloro-3-ethyl-1-oxo-1,3-dihydro-isoindol-2-yl)-6,7-dihydro-5H-[2]pyrindin-7-yl]-acetamide]	94.7 nM	15.1 nM
CC[C@H]1c2cc(Cl)ccc2C(=O)N1c1cncc2c1CC[C@H]2NC(C)=O (single isomer, unassigned) [Example 343]	4690 nM	134 nM
CC(=O)N1CC(Oc2cncc(N3C(=O)c4ccc(Cl)cc4C3(C)C)c2)C1 [Example 450, 2-[5-(1-Acetyl-azetidin-3-yloxy)-pyridin-3-yl]-5-chloro-3,3-dimethyl-2,3-dihydro-isoindol-1-one]	20100 nM	122 nM
O=C1c2ccc(Cl)cc2CCN1c1cncc(CCO)c1 [Example 23, 6-Chloro-2-[5-(2-hydroxy-ethyl)-pyridin-3-yl]-3,4-dihydro-2H-isoquinolin-1-one]	571 nM	64 nM
Cc1ccc(C(=O)NCc2cncc(N3C(=O)c4ccc(Cl)cc4C3(C)C)c2)cn1 [Example 436, N-[5-(6-Chloro-1,1-dimethyl-3-oxo-1,3-dihydro-isoindol-2-yl)-pyridin-3-ylmethyl]-6-methyl-nicotinamide]	158 nM	5.8 nM
O=C1c2ccc(Cl)cc2CCN1c1cncc(N2CC[C@@H](O)C2)c1 [Example 137, 6-Chloro-2-[5-((R)-3-hydroxy-pyrrolidin-1-yl)-pyridin-3-yl]-3,4-dihydro-2H-isoquinolin-1-one]	108 nM	10.1 nM
CC1(C)c2nc(Cl)ccc2C(=O)N1c1cncc(F)c1 [Example 292, 2-Chloro-6-(5-fluoro-pyridin-3-yl)-7,7-dimethyl-6,7-dihydro-pyrrolo[3,4-b]pyridin-5-one]	36200 nM	515 nM
CC1(C)c2cc(Cl)ccc2C(=O)N1c1cncc(CNC(=O)c2ncccc2Cl)c1 [Example 431, 3-Chloro-pyridine-2-carboxylic acid [5-(6-chloro-1,1-dimethyl-3-oxo-1,3-dihydro-isoindol-2-yl)-pyridin-3-ylmethyl]-amide]	912 nM	44.4 nM
CC1(C)c2cc(Cl)ccc2C(=O)N1c1cncc(F)c1 [Example 129, 5-Chloro-2-(5-fluoro-pyridin-3-yl)-3,3-dimethyl-2,3-dihydro-isoindol-1-one]	3160 nM	63.6 nM
Cn1ccnc1C(O)c1cncc(N2CCc3cc(Cl)ccc3C2=O)c1 (stereo not shown) [Example 30, 6-Chloro-2-{5-[hydroxy-(1-methyl-1H-imidazol-2-yl)-methyl]-pyridin-3-yl}-3,4-dihydro-2H-isoquinolin-1-one]	2070 nM	751 nM
N#Cc1cncc(N2CCc3cc(Cl)ccc3C2=O)c1 [Example 2, 5-(6-Chloro-1-oxo-3,4-dihydro-1H-isoquinolin-2-yl)-nicotinonitrile]	7390 nM	442 nM
CC1(C)c2cc(Cl)ccc2C(=O)N1c1cncc(CNC(=O)c2cccnc2)c1 [Example 438, N-[5-(6-Chloro-1,1-dimethyl-3-oxo-1,3-dihydro-isoindol-2-yl)-pyridin-3-ylmethyl]-nicotinamide]	202 nM	3.8 nM
CCC1c2ccc(Cl)cc2C(=O)N1c1cncc(CNS(C)(=O)=O)c1 (single isomer, unassigned) [Example 405, N-[5-((S or R)-5-Chloro-1-ethyl-3-oxo-1,3-dihydro-isoindol-2-yl)-pyridin-3-ylmethyl]-methane-sulfonamide]	35200 nM	546 nM
NC1(c2cncc(N3CCc4cc(Cl)ccc4C3=O)c2)CC1 [Example 57, 2-[5-(1-Amino-cyclopropyl)-pyridin-3-yl]-6-chloro-3,4-dihydro-2H-isoquinolin-1-one]	8000 nM	1280 nM
COc1cncc(N2CCc3cc(Cl)c(F)cc3C2=O)c1 [Example 100, 6-Chloro-7-fluoro-2-(5-methoxy-pyridin-3-yl)-3,4-dihydro-2H-isoquinolin-1-one]	485 nM	17.2 nM
CCC(=O)NC1CCCc2c1cncc2N1Cc2cc(Cl)ccc2C1=O (single isomer, unassigned) [Example 314, N-[(R or S)-4-(5-Chloro-1-oxo-1,3-dihydro-isoindol-2-yl)-5,6,7,8-tetrahydro-isoquinolin-8-yl]-propionamide]	5230 nM	28.2 nM
Cn1nccc1-c1cncc(N2CCc3cc(Cl)ccc3C2=O)c1Cl [Example 424, 6-Chloro-2-[4-chloro-5-(2-methyl-2H-pyrazol-3-yl)-pyridin-3-yl]-3,4-dihydro-2H-isoquinolin-1-one]	140 nM	6.2 nM
Cc1noc(C)c1-c1cncc(N2CCc3cc(Cl)ccc3C2=O)c1 [Example 230, 6-Chloro-2-[5-(3,5-dimethyl-isoxazol-4-yl)-pyridin-3-yl]-3,4-dihydro-2H-isoquinolin-1-one]	149 nM	7 nM
Cn1cc(Cc2cncc(N3C(=O)c4ccc(Cl)cc4C3(C)C)c2)cn1 [Example 281, 5-Chloro-3,3-dimethyl-2-[5-(1-methyl-1H-pyrazol-4-ylmethyl)-pyridin-3-yl]-2,3-dihydro-isoindol-1-one]	3 nM	0.4 nM
O=C1c2ccc(Cl)cc2CCN1c1cnccc1CO [Example 56, 6-Chloro-2-(4-hydroxymethyl-pyridin-3-yl)-3,4-dihydro-2H-isoquinolin-1-one; compound with trifluoro-acctic acid]	13800 nM	297 nM
CCS(=O)(=O)N1CCN(c2cncc(N3C(=O)c4ccc(Cl)cc4C3(C)C)c2)CC1 [Example 458, 5-Chloro-2-[5-(4-ethanesulfonyl-piperazin-1-yl)-pyridin-3-yl]-3,3-dimethyl-2,3-dihydroisoindol-1-one]	351 nM	1.7 nM
COc1cncc(N2CCc3c(ccc(Cl)c3F)C2=O)c1 [Example 99, 6-Chloro-5-fluoro-2-(5-methoxy-pyridin-3-yl)-3,4-dihydro-2H-isoquinolin-1-one]	7270 nM	901 nM
O=C1c2ccc(Cl)cc2CN1c1cncc2c1CCCC2O (stereo not shown) [Example 117, 5-Chloro-2-(8-hydroxy-5,6,7,8-tetrahydro-isoquinolin-4-yl)-2,3-dihydro-isoindol-1-one]	894 nM	127 nM
O=C1c2ccc(Cl)cc2CN1c1cncc(Cn2cncn2)c1 [Example 110, 5-Chloro-2-(5-[1,2,4]triazol-1-ylmethyl-pyridin-3-yl)-2,3-dihydro-isoindol-1-one]	1280 nM	184 nM
CS(=O)(=O)NC1CCc2c1cncc2N1Cc2cc(Cl)ccc2C1=O (single isomer, unassigned) [Example 334, N-[(R or S)-4-(5-Chloro-1-oxo-1,3-dihydro-isoindol-2-yl)-6,7-dihydro-5H-[2]pyrindin-7-yl]-methanesulfonamide]	34600 nM	383 nM
